This is an account of results in ChEMBL document CHEMBL6087456 (J Med Chem, 2025).

Converted amounts (≈) assume the structure as drawn.

The target in data set [1] is T1, Dihydroorotate dehydrogenase (quinone), mitochondrial (Plasmodium falciparum (isolate 3D7), UniProt Q08210).
T1 sequence (Q08210 whole entry): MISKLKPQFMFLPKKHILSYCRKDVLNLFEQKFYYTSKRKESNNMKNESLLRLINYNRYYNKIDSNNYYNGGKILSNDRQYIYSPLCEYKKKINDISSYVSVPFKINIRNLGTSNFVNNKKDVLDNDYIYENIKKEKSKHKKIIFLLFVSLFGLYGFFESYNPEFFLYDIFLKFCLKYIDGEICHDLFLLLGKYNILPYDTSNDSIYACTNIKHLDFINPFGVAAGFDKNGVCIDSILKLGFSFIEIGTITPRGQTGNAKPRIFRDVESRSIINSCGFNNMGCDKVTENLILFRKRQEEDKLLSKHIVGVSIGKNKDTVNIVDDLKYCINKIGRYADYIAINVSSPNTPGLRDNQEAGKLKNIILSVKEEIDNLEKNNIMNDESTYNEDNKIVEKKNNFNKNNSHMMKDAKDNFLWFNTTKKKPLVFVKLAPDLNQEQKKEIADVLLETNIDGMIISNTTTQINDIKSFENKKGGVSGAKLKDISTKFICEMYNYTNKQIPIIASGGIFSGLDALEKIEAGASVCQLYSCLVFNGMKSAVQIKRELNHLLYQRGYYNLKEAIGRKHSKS
In words: Inhibition of N-terminal His6-tagged recombinant Plasmodium falciparum DHODH (158 to 569 residues) N-terminally truncated soluble domain extracted from Escherichia coli phage resistant BL21-DE3 using CoQD/DHA/DCIP as substrates.

In data set [2] the target is Dihydroorotate dehydrogenase (quinone), mitochondrial (Homo sapiens, UniProt Q02127). In words: Inhibition of C-terminal His6-tagged recombinant human DHODH (29 to 395 residues) N-terminally truncated soluble domain extracted from Escherichia coli phage resistant BL21-DE3 using CoQD/DHA/DCIP as substrates.
Chain of Dihydroorotate dehydrogenase (quinone), mitochondrial (Homo sapiens, UniProt Q02127) (Q02127 whole entry, the tested form may be a part): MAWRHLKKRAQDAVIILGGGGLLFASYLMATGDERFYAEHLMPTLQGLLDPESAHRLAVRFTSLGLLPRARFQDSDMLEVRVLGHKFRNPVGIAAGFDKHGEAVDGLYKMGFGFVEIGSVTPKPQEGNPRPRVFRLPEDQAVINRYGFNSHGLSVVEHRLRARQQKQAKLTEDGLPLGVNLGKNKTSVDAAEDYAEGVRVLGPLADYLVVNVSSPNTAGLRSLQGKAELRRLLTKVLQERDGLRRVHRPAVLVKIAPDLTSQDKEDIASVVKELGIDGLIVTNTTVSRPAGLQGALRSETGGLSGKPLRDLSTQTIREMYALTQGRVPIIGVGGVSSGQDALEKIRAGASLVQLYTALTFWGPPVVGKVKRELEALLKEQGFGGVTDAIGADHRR
The subject of a further data set is Plasmodium falciparum. In words: Antiparasitic activity against asexual blood stage Plasmodium falciparum 3D7 incubated for 72 hrs by SYBR Green assay. Type of data set: functional, organism-based. Particulars: 3D7, 72 h.
Data set [3] in a line: Kinetic solubility of compound at pH 6.5 measured after 30 mins by nephelometry. Type of data set: physicochemical. Particulars: buffer; for Kinetic_solubility: pH 6.5, 0.5 h; for solubility kinetic at 0.5 h: pH 6.5, read-out: Kinetic_solubility.
The nature of data set [4]: Metabolic stability in human liver microsomes assessed as intrinsic clearance at 0.5 uM incubated for 60 mins in presence of NADPH by tandem quadrupole-Time of Flight MS. Particulars: 1 h. The data set is classed as ADME, Microsome. In general terms: Microsomes from liver hold many membrane-bound enzymes, among them those of drug oxidation.
A short description of data set [5]: Partition coefficient, log D of compound at pH 7.4 measured after 24 hrs by LCMS analysis. The data set is classed as physicochemical. The following applies: octanol/water, pH 7.4, 24 h.
Data set [6] is described as follows: Ratio of drug concentration in Sprague-Dawley rat brain to plasma at 1 uM measured for 5 to 60 mins by LCMS analysis. Type of data set: ADME, cell-free. Particulars: time 5-60 min.
Data set [7] can be described thus: Oral absorption in overnight-fasted male Sprague-Dawley rat at 3 mg/kg measured upto 72 hrs by LCMS analysis. Type of data set: ADME, organism-based. Particulars: in vivo.
The nature of data set [8]: Plasma protein binding in human measured for 6 hrs by rapid equilibrium dialysis. Type of data set: ADME, cell-free. In general terms: In equilibrium dialysis free small molecules cross a membrane that holds back macromolecules.
A short description of data set [9]: Plasma protein binding in rat measured for 6 hrs by rapid equilibrium dialysis. Type of data set: ADME, cell-free.
In another data set the target is Albumin (Homo sapiens, UniProt P02768). Nature of the data set: Protein binding to albumin (unknown origin) in ALBUMAX medium. Particulars: read-out: PB (converted). Type of data set: ADME.
Chain of Albumin (P02768 whole entry): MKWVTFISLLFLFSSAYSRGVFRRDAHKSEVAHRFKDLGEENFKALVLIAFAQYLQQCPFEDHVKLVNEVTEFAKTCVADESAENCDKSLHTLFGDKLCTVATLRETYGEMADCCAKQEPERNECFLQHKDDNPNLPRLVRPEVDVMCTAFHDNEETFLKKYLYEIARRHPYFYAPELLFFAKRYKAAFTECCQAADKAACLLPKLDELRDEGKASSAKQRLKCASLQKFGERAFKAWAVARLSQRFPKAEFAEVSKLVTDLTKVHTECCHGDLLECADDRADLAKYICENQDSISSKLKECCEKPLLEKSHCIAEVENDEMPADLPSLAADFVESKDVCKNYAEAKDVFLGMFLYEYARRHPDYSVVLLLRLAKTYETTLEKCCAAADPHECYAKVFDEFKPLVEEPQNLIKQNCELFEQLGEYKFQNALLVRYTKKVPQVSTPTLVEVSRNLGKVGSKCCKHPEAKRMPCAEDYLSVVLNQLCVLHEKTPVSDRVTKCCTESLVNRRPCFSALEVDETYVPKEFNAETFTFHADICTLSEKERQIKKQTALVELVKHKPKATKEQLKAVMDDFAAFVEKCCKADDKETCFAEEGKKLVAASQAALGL
Data set [10] in a line: Protein binding in human hepatocytes. Type of data set: ADME, cell-based, Hepatocyte. The following applies: read-out: PB (converted).
Data set [11] can be described thus: Half life in overnight-fasted male Sprague-Dawley rat at 3 mg/kg, po or 1 mg/kg, iv measured upto 72 hrs by LCMS analysis. The following applies: in vivo. Type of data set: ADME, organism-based.
The nature of data set [12]: Oral bioavailability in overnight-fasted male Sprague-Dawley rat at 3 mg/kg measured upto 72 hrs by LCMS analysis. Particulars: in vivo. The data set is classed as ADME, organism-based.

Usually IC50 stands for the concentration at which inhibition is half-maximal. The EC50 is the concentration giving half of the maximal effect. What is called logD is the decadic logarithm of the distribution of all forms, ionised or not, between an organic phase and buffer at a given pH. Regarding `CCn1cc(C)c2c([C@H](N)c3ccc(C(F)(F)F)nc3)n(C)nc2c1=O`, the half-inhibitory concentration (IC50) in data set [1] was 280 nM; in data set [2], > 100000 nM. This compound registered an EC50 in the data set on Plasmodium falciparum of 70 nM. Also, in [3], the Kinetic_solubility is > 320 µM. Also, the “intrinsic clearance (CLint)” value in [4] was < 3 µL/min/mg. The compound further registered a logD in [5] of 1.82. Besides, the BPR in data set [6] is recorded as 1.1.
Take `Cn1nc2c(=O)n(C3CC3)ccc2c1[C@](O)(c1ccc(C(F)(F)F)nc1)C1CC1`: the IC50 in data set [2] was > 30000 nM. The response in the data set with Plasmodium falciparum was half-maximal at 7 nM (EC50). The solubility kinetic at 0.5 h in [3] came to 20 µM (≈ 8.09 µg/mL). The “intrinsic clearance (CLint)” value in data set [4] is < 3 µL/min/mg. This compound showed a Fa at 72 h in data set [7] of 40%.
Consider `CCn1cc(C)c2c(Cc3ccc(C(F)(F)F)nc3)n(C)nc2c1=O`, for which the values for the IC50 in data set [1] and in data set [2] were 70 nM and > 100000 nM, respectively. A half-maximal effect in the data set on Plasmodium falciparum (EC50) was put at 44 nM. Moreover, in data set [3], the Kinetic_solubility was > 280 µM. In [4], the “intrinsic clearance (CLint)” value was < 7 µL/min/mg.
As to `CCn1ccc2c([C@](O)(c3cnc(C(F)(F)F)c(Cl)c3)C3CC3)n(C)nc2c1=O`, the IC50 in data set [2] was > 100000 nM. The compound further showed an EC50 with Plasmodium falciparum of 2 nM. The solubility kinetic at 0.5 h in [3] came out at 40 µM (≈ 17.1 µg/mL). For the same compound, in data set [4], the “intrinsic clearance (CLint)” value was 3.2 µL/min/mg. The PPB in [8] is 70.4%; in data set [9], 64%. Further, the BPR in [6] is recorded as 0.84.
As to `Cn1nc2c(=O)n(C3CC3)ccc2c1[C@](O)(c1ccc(C(F)(F)F)c(C#N)c1)C1CC1`, the IC50 is 18 nM in data set [1] and > 30000 nM in data set [2]. The compound further had an EC50 in the data set with Plasmodium falciparum of 1 nM. Besides, the Kinetic_solubility in [3] was < 5 µM. Moreover, the “intrinsic clearance (CLint)” value in data set [4] is < 3 µL/min/mg.
As for `Cn1nc2c(=O)n(C3CC3)ccc2c1[C@](O)(c1cnc(C(F)(F)F)c(Cl)c1)C1CC1`, in data set [2], the half-maximal inhibitory concentration (IC50) is > 30000 nM. In the data set on Plasmodium falciparum, this compound showed a concentration for a half-maximal effect (EC50) of 3 nM. The solubility kinetic at 0.5 h in [3] was found to be 12.5 µM (≈ 5.49 µg/mL). In addition, the “intrinsic clearance (CLint)” value in [4] is < 3 µL/min/mg. The PPB came out at 95.8% in data set [8] and 93% in [9]. Also, the results for the fraction unbound (at Albumin; in data set [10]) were 0.289 and 0.578, respectively. The t1/2 in [11] was found to be 19 h. In [7], this compound showed a Fa at 72 h of 4.6%.
In the data set with Plasmodium falciparum, `CC[C@@](N)(c1cnc(C(F)(F)F)c(Cl)c1)c1c2ccn(C3CC3)c(=O)c2nn1C` yielded a 50% effective concentration (EC50) of 3 nM. Further, the Kinetic_solubility in data set [3] was > 100 µM. The “intrinsic clearance (CLint)” value in data set [4] was < 3 µL/min/mg. Further, the fraction unbound on Albumin was 0.63; in [10] it was 0.574. Besides, in data set [6], the BPR turned out to be 0.73. For the same compound, in data set [11], the t1/2 was found to be 15 h. Besides, the F in [12] worked out at 4%. Moreover, in data set [7], the Fa at 72 h is 82%.
`Cn1nc2c(=O)n(C3CC3)cnc2c1[C@](O)(c1ccc(C(F)(F)F)c(Cl)c1)C(F)(F)F`: the IC50 in data set [1] stood at 5 nM; in data set [2] it was 6500 nM. Moreover, the concentration for a half-maximal effect (EC50) in the data set on Plasmodium falciparum is 77000 nM. Besides, in data set [3], the solubility kinetic at 0.5 h amounted to 20 µM (≈ 9.34 µg/mL). Also, the “intrinsic clearance (CLint)” value in data set [4] is < 3 µL/min/mg.
In the data set on Plasmodium falciparum, `CCn1ccc2c([C@@](O)(CC)c3ccc(C(F)(F)F)nc3)n(C)nc2c1=O` gave an EC50 of 2 nM. In data set [3], the solubility kinetic at 0.5 h was 40 µM (≈ 15.2 µg/mL). Besides, the “intrinsic clearance (CLint)” value in data set [4] stood at 3.6 µL/min/mg. This compound showed a PPB in data set [9] of 75.4%. In addition, at Albumin, the fraction unbound is 0.821. In addition, the t1/2 in [11] is 3.4 h.
As for `Cc1nn(C2CC2)c(=O)c2nn(C)c(Cc3ccc(C(F)(F)F)c(C#N)c3)c12`, the fraction unbound on Albumin is 0.499. For the same compound, the t1/2 in data set [11] worked out at 31 h. For the same compound, in [7], the Fa at 72 h is 15%.
Turning to `CC[C@@](O)(c1ccc(C(F)(F)F)c(C#N)c1)c1c2ccn(C3CC3)c(=O)c2nn1C`, the IC50 in [1] amounted to 19 nM; in data set [2], 960 nM. The same compound registered an EC50 with Plasmodium falciparum of 1 nM. Further, in data set [3], the solubility kinetic at 0.5 h is 20 µM (≈ 8.33 µg/mL). The “intrinsic clearance (CLint)” value in data set [4] was < 3 µL/min/mg.
For the compound `CCn1cc(Cl)c2c(Cc3ccc(C(F)(F)F)nc3)n(C)nc2c1=O`, in [2], the half-inhibitory concentration (IC50) came to 72000 nM. Further, in the data set on Plasmodium falciparum, a half-maximal response (EC50) required 14 nM. For the same compound, the solubility kinetic at 0.5 h in data set [3] amounted to 70 µM (≈ 26 µg/mL). Besides, the “intrinsic clearance (CLint)” value in data set [4] stood at 14 µL/min/mg. Besides, the fraction unbound at Albumin was 0.558. Further, the BPR in data set [6] is 0.72. Moreover, the Fa at 72 h in data set [7] stood at 100%.
As for `CCn1cc(C2CC2)c2c(CN3CCC4(CCC4)CC3)n(C)nc2c1=O`, the results for the concentration for half-maximal inhibition (IC50) in data set [1] and in [2] were 8 nM and 22000 nM, respectively. For the same compound, in the data set with Plasmodium falciparum, the midpoint of the response, the EC50, lay at 15 nM. Also, the solubility kinetic at 0.5 h in [3] is 80 µM (≈ 28.4 µg/mL). Also, the “intrinsic clearance (CLint)” value in data set [4] stood at 130 µL/min/mg.
With `CCn1cc(C2CC2)c2c(Cc3ccc(C(F)(F)F)c(C#N)c3)n(C)nc2c1=O`, the 50% inhibitory concentration (IC50) in data set [1] is 15 nM; in data set [2], 11000 nM. Also, in the data set on Plasmodium falciparum, the EC50 turned out to be 4 nM. In addition, the solubility kinetic at 0.5 h in data set [3] was 15 µM (≈ 6.01 µg/mL). Further, the “intrinsic clearance (CLint)” value in data set [4] turned out to be 64 µL/min/mg.
`Cn1nc2c(=O)n(C3CC3)ncc2c1[C@](O)(c1ccc(C(F)(F)F)c(C#N)c1)C(F)(F)F`: the IC50 in data set [1] is 19 nM; in data set [2], > 30000 nM. In the data set on Plasmodium falciparum, the response was half-maximal at 1 nM (EC50). Also, the solubility kinetic at 0.5 h in data set [3] came to 20 µM (≈ 9.15 µg/mL). For the same compound, the “intrinsic clearance (CLint)” value in [4] is < 3 µL/min/mg.
Turning to `CCn1cc(C2CC2)c2c(Cc3ccc(C(F)(F)F)c(F)c3)n(C)nc2c1=O`, the concentration for half-maximal inhibition (IC50) turned out to be 14 nM in data set [1] and 14000 nM in data set [2]. This compound showed a half-maximal effective concentration (EC50) in the data set on Plasmodium falciparum of 8 nM. Besides, the solubility kinetic at 0.5 h in data set [3] amounted to 16 µM (≈ 6.29 µg/mL). Further, in data set [4], the “intrinsic clearance (CLint)” value worked out at 52 µL/min/mg.
With `CCn1cc(Cl)c2c(Cc3ccc(N4CCCCC4)nc3)n(C)nc2c1=O`, the concentration for half-maximal inhibition (IC50) was 17 nM in [1] and 5400 nM in [2]. Moreover, a half-maximal response in the data set with Plasmodium falciparum (EC50) required 62 nM. The solubility kinetic at 0.5 h in data set [3] turned out to be 40 µM (≈ 15.4 µg/mL). For the same compound, the “intrinsic clearance (CLint)” value in data set [4] is 160 µL/min/mg.
Regarding `Cc1cn(C2CC2)c(=O)c2nn(C)c(Cc3ccc(C(F)(F)F)nc3)c12`, the IC50 in [1] was determined as 89 nM; in data set [2], 52000 nM. Also, in the data set with Plasmodium falciparum, the EC50 stood at 45 nM. Further, the solubility kinetic at 0.5 h in data set [3] came out at 130 µM (≈ 47.1 µg/mL). Further, the “intrinsic clearance (CLint)” value in [4] was < 7 µL/min/mg.
